In patent publication US9914760B2, “Methods of identifying, isolating and using odorant and aroma receptors” (Firmenich SA, priority 2013, dated 2018):

Molecular target: Olfr743 (Mus musculus, UniProt L7N1Y2)
Assay: cell-based cAMP assay (HTRF), HEK293T co-transfected with Gαolf
Conditions: 300 μM 2-acetonaphthone
Source text: The activity of candidate mouse receptors Olfr740 (SEQ ID NO: 1 and SEQ ID NO: 2), Olfr743 (SEQ ID NO: 5 and SEQ ID NO: 6), and Olfr746 (SEQ ID NO: 37 and SEQ ID NO: 38) to both indole and skatole malodors were confirmed in cell-based cAMP assays. In FIGS. 5A and 5B, FLAG Rho-tagged (SEQ ID 18) Olfr743 (SEQ ID NO: 6) and Olfr740 (SEQ ID NO: 2) cDNA sequences were co-transfected with Gαolf (SEQ ID NO: 21) and exposed to increasing concentrations of indole (left) or skatole (right). FIGS. 5C and 5D are repeat experiments showing similar activity of Olfr740 (SEQ ID NO: 2) with Olfr743 (SEQ ID NO: 6) with indole and skatole. In FIG. 5E, the FLAG Rho-tagged (SEQ ID 18) Olfr746 (SEQ ID NO: 38) cDNA sequence was co-transfected with Gαolf (SEQ ID NO: 21) and exposed to increasing concentrations of indole or skatole. Odorant-induced activity was detected by measuring cAMP levels in the cytosol using the HTRF approach (CisBio kit). […] Co-transfection of HEK cells with Gαolf (SEQ ID NO: 21) alone (no receptor) were used as controls for non-specific activity (control). Activity is defined as the baseline corrected HTRF ratios normalized to the highest signal in the experiment. […] All three receptors show specific dose dependent activity to the malodor compounds and, as such, validate the process for identifying receptors for these compounds. Mouse receptors Olfr740 (SEQ ID NO: 1 and SEQ ID NO: 2) and Olfr743 (SEQ ID NO: 5 and SEQ ID NO: 6) were identified from isolated olfactory neurons that responded to both indole and skatole. Mouse receptor Olfr746 (SEQ ID NO: 37 and SEQ ID NO: 38) was identified in silico by database mining using Olfr740 (SEQ ID NO: 2) and Olfr743 (SEQ ID NO: 6) as query sequences. The receptors are modified at their N-terminus with the FLAG tag and the first 20 amino acids of the bovine rhodopsin receptor (SEQ ID 18), transiently expressed in HEK 293T cells, and stimulated separately with indole and skatole to confirm their identity as bona fide indole/skatole receptors. Co-expression of the human G alpha subunit Gαolf (SEQ ID NO: 21) activates the Gs transduction pathway that leads to an internal cAMP increase upon binding to the appropriate ligand.
Once identified using the procedure outlined herein, the resulting malodor receptor cell lines can be used to screen chemical libraries for compounds that modulate their activity and possibly human perception. This experiment was performed under the same conditions as in Example 4. Cells transfected with Rho-tagged (SEQ ID NO: 18) Olfr743 (SEQ ID NO: 6) were exposed to increasing concentrations of indole in the presence or absence of 300 μM 2-actetonaphthone. […] In the presence of the antagonist compound, a rightward shift of in the dose-response curve is observed resulting in a 4 fold increase in the EC50 to indole. Activity is defined as the baseline corrected HTRF ratios normalized to the highest signal in the experiment.

Sequence of Olfr743 (P38405 2-381): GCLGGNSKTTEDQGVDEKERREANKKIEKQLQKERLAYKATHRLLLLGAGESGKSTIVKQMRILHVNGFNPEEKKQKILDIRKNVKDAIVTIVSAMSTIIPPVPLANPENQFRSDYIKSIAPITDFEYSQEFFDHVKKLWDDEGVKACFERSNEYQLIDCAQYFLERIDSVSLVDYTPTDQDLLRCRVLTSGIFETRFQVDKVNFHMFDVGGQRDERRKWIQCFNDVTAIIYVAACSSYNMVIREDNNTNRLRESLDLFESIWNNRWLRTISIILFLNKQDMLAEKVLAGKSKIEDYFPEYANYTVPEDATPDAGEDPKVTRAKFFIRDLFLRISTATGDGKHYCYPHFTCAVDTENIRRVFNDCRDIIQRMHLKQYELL
Sequence of Olfr743 (L7N1Y2 entry or part of it): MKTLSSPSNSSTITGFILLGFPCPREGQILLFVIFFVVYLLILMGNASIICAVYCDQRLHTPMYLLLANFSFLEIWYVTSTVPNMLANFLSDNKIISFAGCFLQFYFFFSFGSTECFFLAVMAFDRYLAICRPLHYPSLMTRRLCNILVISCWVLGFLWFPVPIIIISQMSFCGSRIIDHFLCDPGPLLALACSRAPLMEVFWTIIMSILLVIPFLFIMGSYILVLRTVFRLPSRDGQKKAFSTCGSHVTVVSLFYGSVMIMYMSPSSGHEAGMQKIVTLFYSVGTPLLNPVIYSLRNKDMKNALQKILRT

`CC(=O)c1ccc2ccccc2c1` [2-acetonaphthone] was tested, and the “inhibition of Olfr743 activity to indole” value was “inhibits the activity” and the “increase in the EC50 to indole” value (rightward shift of dose-response curve) was 4 fold.
